Source: patent US20230235374A1, “High Throughput Assays for Detecting Translation Readthrough Inducers” (The Trustees of the University of Pennsylvania, priority 2021, published 2023)

Experiments:
[1] = test system: Stop-POST5 / Stop-PRE6 complex; test: High throughput translocation assay (proflavin fluorescence, plate reader); assay type: biochemical; conditions: FIG. 17B
From the text: FIGS. 17A, 17B, 17C, and 17D are graphs showing data from the high throughput translocation assay. FIG. 17A is a graph showing a stable prf-fluorescence increase at different G418 concentrations [G418] due to eEF2-dependent conversion of a Stop-PRE6 complex to a Stop-POST6 complex, resulting from the increase in quantum yield of Trp-tRNA(prf). FIG. 17B is a graph showing fluorescence results in FIG. 17A as a function of [G418]. FIG. 17C is a graph showing the kinetics of Stop-PRE6 translocation, measured at 1 μM eEF2 and 2 μM G418. FIG. 17D is a graph showing the kinetics of Trp-PRE6 translocation to Trp-POST6 measured at 0.05 μM of eEF2 in the absence of G418.
Different proflavin-labeled aa-tRNAs, denoted aa-tRNA(prf)s, were used to monitor the elongation cycle changes by fluorescence change at 511 nm following excitation at 458 nm (Ng et al. PNAS, 118(2) e2020599118, 1-10 (2021)). Binding of Trp-TC(prf) to a Trp-POST5 complex in the presence of eEF2 lead to a biphasic increase, with the first, more rapid phase corresponding to formation of Trp-PRE6, followed by a slower, eEF2-dependent phase corresponding to conversion of Trp-PRE6 into Trp-POST6. The translocation step was monitored using a plate-reader assay for both G418-stimulated readthrough of Stop-POST5 (FIGS. 17A-17C) and cognate elongation of Trp-POST5 (FIG. 17D) by adjustment of [eEF2].

[2] = target: T1, eRF1 (Saccharomyces cerevisiae, UniProt P12385); test: [3H]-AzAt photoaffinity labeling of isolated eRF1; assay type: binding; conditions: FIG. 2E
T1 construct: made in house; host or cells: E. coli BL21(DE3) CodonPlus
Protocol: (§1) Photoaffinity labeling with [^3H]-AzAt. Samples in Buffer 4, typically 20 μL, were incubated in the dark (20 min for Stop-POST5 and 80S-IRES complexes, 2 min for release factors) with various concentrations of [^3H]-AzAt at 37° C., transferred to a UV-transparent cuvette which was covered with parafilm to prevent evaporation, and irradiated in a Rayonet photochemical reactor equipped with 300 nm UV lamps for 5 min at room temperature. This was followed by quenching with 2 mM DTT at 37° C. for 5 min under ambient light. The irradiation time gave complete photolysis of the phenyl azide moiety in AzAt. Photolysis was also complete at 5 min in the presence of 1 mM ataluren, ruling out internal filtering effects.
(§2) Photoaffinity labeling of release factors. Solutions containing eRF1 (10 μM), eRF3 (20 μM) and 1 mM GMPPMP were pre-incubated at 37° C. for 2 min to form the ternary complex prior to photolabeling with [^3H]-AzAt. After quenching, reaction mixtures were loaded onto a 4-15% mini protean SDS-PAGE gel for protein separation and isolation. Gel slices containing eRF1 or eRF3, as shown by Coomassie Blue R250 staining, were crushed and the radioactivity was extracted in extraction buffer (50 mM Tris-HCl, 150 mM NaCl, and 0.1 mM EDTA; pH 7.5) by vigorously shaking at 70° C. for 30 min. The data fitting was performed using the software Prism. Labeling results of eRF1 alone and within the eRF1.eRF3.GDPNP complex were fit with a one-site binding model and a two-site binding model, respectively.

[3] = target: T2, eRF1.eRF3.GDPNP ternary complex (Saccharomyces cerevisiae, UniProt P12385); test: [3H]-AzAt photoaffinity labeling of eRF1 within ternary complex; assay type: binding; conditions: compared with isolated eRF1, FIG. 2E
T2 construct: made in house; host or cells: E. coli BL21(DE3) CodonPlus
Protocol: as §1, §2

[4] = test system: Small RNAs within Stop-POST5 complex; test: AzAt photoincorporation into small RNAs (urea-PAGE, RNAse H fragments); assay type: binding, shrimp (Artemia salina)
Protocol: FIG. 11 illustrates 8% Urea-PAGE resolution of small RNAs.
as §1
Stop-POST5 and 80S-IRES complexes. 1 μM solutions of either Stop-POST5 or 80S-S.IRES, determined by A260, were photolabeled by [^3H]-AzAt. The sample was then either directly purified by ultracentrifugation through a sucrose cushion to determine the photoincorporation stoichiometry in the complex, or subjected to phenol/chloroform extraction to determine the photoincorporation stoichiometry in the total RNA. To determine the photoincorporation background arising from incomplete removal of noncovalently bound photolyzed AzAt, AzAt was prephotolysed for 5 min before adding to the complex, followed by the 20 min incubation in dark at 37° C. and subsequent sucrose cushion purification or RNA extraction as described above.
(§3) RNaseH Fragment Assay. Total RNA was prepared from the ^3H-AzAt photoaffinity labeled ribosome by phenol-chloroform extraction. RNA: DNA duplexes were formed by incubating total RNA (0.2 μM) with an oligonucleotide pair (1 μM of each, sequences shown Table 1), flanking a specific RNA region, in 22.8 μL of water at 95° C. for 2 min, followed by annealing at 50° C. for 30 s and quenching on ice. Six units (1.2 μL) of RNase H (NEB) and 6 μl of 5×RNase H Reaction Buffer were next added to the RNA: DNA duplex and incubated at 37° C. for 1 hour, followed by phenol-chloroform extraction of RNA. The digested RNA was separated on 12% TBE-Urea PAGE gel, and the target band along with the adjacent upper and bottom gels were sliced by a 2 mm gel cutter. The gel slices were crushed and the ^3H labeled rRNA fragment was extracted in water by vigorously shaking at 70° C. for 30 min, or by overnight extraction in elution buffer (0.3M sodium acetate, 0.25% SDS, 1 mM EDTA). The slurry was removed by centrifugation and the eluted ^3H labeled rRNA in the supernatant was quantified. The stoichiometry of AzAt photoincorporation was calculated based on a gel recovery yield of 20±2%, determined using an authentic sample of [^3H]-Gln-tRNA^Gln.
Small RNAs. AzAt photoincorporation into the 4 small RNAs (CrPV-IRES, 5.8S rRNA, 5S rRNA, and tRNA) contained within POST5 was examined by one-dimensional (1D) urea-PAGE analysis, by RNA-Seq, and by RNAse H fragment assay (FIG. 11).

[5] = test system: rRNA fragments I-IV of Stop-POST5; test: RNaseH fragment assay, Stop-POST5; assay type: binding, shrimp (Artemia salina)
Protocol: as §3
Testing the functional pertinence of AzAt photolabeling of 18S A1195, 28S-A3093, 28S-A2672, and 28S-2669. An RNAse H fragment assay was employed to determine whether the potential functionally significant sites identified by LASER-seq correspond to ataluren binding sites relevant for termination activity. In this assay, oligonucleotide hybridization, RNase H digestion and polyacrylamide gel electrophoresis (PAGE) were used to determine the stoichiometry of [^3H]-AzAt photoincorporation into the three rRNA fragments that together include the four nucleotides of interest: Fragment I, 18S-A1195; Fragment II, 26S-A3093; Fragment III, 26S-A2669 and 26S-A2672 (Table 5). The separate addition of four potential competitors of AzAt binding (eRF1 alone, the stably bound eRF1.eRF3.GDPNP complex, ataluren, and the ataluren-like TRID GJ072) was used to test how these affected such photoincorporation. These experiments, the results of which are summarized in Table 5, were performed at two different AzAt concentrations. eRF1 and eRF1.eRF3.GDPNP effects were measured using 300 μM AzAt, paralleling the LASER-Seq PAL experiments.

[6] = Solubility in aqueous medium; assay type: physicochemical
[7] = PAL, 30 μM AzAt, alone or plus competing ligand named as label
[8] = Stop-POST5, PAL, 30 μM AzAt, alone or plus Ataluren 500 μM / GJ072 150 μM named as label

T2 sequence (P05453 166-685): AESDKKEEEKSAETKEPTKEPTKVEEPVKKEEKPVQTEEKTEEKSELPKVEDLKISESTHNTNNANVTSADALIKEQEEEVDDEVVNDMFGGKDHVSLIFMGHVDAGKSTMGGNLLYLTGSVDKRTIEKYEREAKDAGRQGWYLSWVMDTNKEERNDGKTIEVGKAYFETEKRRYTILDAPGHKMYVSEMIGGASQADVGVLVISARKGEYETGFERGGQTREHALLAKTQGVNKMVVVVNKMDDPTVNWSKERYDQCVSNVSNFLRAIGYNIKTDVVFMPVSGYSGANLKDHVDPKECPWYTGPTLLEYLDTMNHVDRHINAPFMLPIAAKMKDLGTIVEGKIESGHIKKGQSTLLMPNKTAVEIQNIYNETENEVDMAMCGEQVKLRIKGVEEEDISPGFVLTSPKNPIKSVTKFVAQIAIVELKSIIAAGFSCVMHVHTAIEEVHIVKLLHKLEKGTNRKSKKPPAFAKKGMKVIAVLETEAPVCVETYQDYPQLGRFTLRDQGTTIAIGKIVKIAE
T2 sequence (P12385 whole entry): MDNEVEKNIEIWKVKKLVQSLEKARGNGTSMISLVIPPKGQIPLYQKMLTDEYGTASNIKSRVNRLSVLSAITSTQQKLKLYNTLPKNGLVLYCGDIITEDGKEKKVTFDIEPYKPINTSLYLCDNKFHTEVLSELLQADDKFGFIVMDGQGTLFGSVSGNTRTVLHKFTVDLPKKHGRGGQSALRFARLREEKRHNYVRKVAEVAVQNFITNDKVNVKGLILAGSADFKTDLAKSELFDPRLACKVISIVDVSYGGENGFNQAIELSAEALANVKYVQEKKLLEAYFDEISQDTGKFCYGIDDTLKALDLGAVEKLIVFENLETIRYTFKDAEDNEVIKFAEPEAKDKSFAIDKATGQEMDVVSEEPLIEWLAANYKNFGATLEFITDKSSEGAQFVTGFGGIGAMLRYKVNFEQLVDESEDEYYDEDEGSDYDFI
T1 sequence (P12385 whole entry): as above

CN[C@@H]1[C@@H](O)[C@@H](O[C@@H]2[C@@H](O)[C@H](O[C@H]3O[C@H]([C@@H](C)O)[C@@H](O)[C@H](O)[C@H]3N)[C@@H](N)C[C@H]2N)OC[C@]1(C)O [G418]
EC50 value, G418-stimulated readthrough translocation [1]: fully consistent with previous determination

COc1cccc(-n2c(SCC(=O)Nc3ccc(F)cc3)nnc2-c2ccccn2)c1 [GJ072]
effect on AzAt photoincorporation into isolated eRF1 [2]: substantially inhibited | inhibition of AzAt photoincorporation into eRF1 within the ternary complex [3]: less marked | Photoincorporation yields into CrPV-IRES nts1-155 ([4]; PAL, 30 μM AzAt, alone (AzAt) or plus competing ligand named as label (Ataluren 500 μM, GJ072 150 μM)): 0.51 ± 0.03 mole % | Photoincorporation yields into 5S rRNA [4, 7]: 0.15 ± 0.01 mole % | Photoincorporation yields into 5.8S rRNA [4, 7]: 0.19 ± 0.07 mole % | Photoincorporation yields into CrPV-IRES All [4, 7]: 0.59 ± 0.14 mole % | Photoincorporation yields into CrPV-IRES nts156-221 [4, 7]: 0.22 ± 0.05 mole % | Photoincorporation yields into CrPV-IRES nts222-278 [4, 7]: 0.09 ± 0.05 mole % | Photoincorporation yields into tRNA^Gln [4, 7]: 0.25 ± 0.03 mole % | effect on AzAt labeling of CrPV-IRES fragments 1-155 and 156-221 ([4]; RNAse H fragment assay): no clearly significant changes | effect on AzAt labeling of small RNAs ([4]; none clearly significant): generally small reductions | effect on AzAt photoincorporation into Fragment IV (26S A1437/A1438) [5]: neither ataluren nor GJ072 reduce labeling at all | effect on AzAt photoincorporation into Fragment I (18S-A1195) ([5]; Stop-POST5): strongly inhibited | effect on AzAt photoincorporation into Fragment II (A3093) ([5]; Stop-POST5): stimulated | effect on AzAt photoincorporation into Fragment III (A2669/A2672) ([5]; Stop-POST5): only weakly inhibited | Photoincorporation yields into 18S A1195/ I: 18S 1151-1206 [5, 8]: 0.10 ± 0.01 mole % | Photoincorporation yields into 26S-A2669:A2672/ III: 26S 2638-2702 [5, 8]: 0.07 ± 0.01 mole % | Photoincorporation yields into 26S-A3093/ II: 26S 3069-3113 [5, 8]: 0.07 ± 0.01 mole % | Photoincorporation yields into RNAse H Fragment IV: 26S 1413-1476 [5, 8]: 0.019 ± 0.004% | solubility in aqueous medium [6]: limited solubility
